Measurements from patent US9855239B2, “Methods for the treatment and prevention of age-related retinal dysfunction” (University of Washington, priority 2008, dated 2018).

Target: T1, rhodopsin/opsin (Mus musculus, UniProt P15409)
T1 construct: from tissue; host or cells: whole eyes of wild-type C57BL/6 female mice
Assay: Purified rhodopsin/opsin analysis after long-term treatment
Format: in vivo
Procedure: Two weeks after the last gavage with either, 9-cis-R-Ac, all-trans-R-Ac or vehicle, groups of 48 hr dark-adapted mice were analyzed for recovery of dark adaptation after light exposure, purified rhodopsin/opsin and retinoids in the eye and retinal morphology (FIG. 1C; Methods). Mice were exposed to light of intensity 500 cd·m^−2 that bleached ˜90% of rhodopsin, anesthetized and monitored by ERG for one hr to evaluate recovery of dark adaptation. Rhodopsin was purified and rhodopsin/opsin ratios was determined. Retinoid analyses were performed on dissected eyes removed at 0, 10, 30, and 60 min after exposure to the same amount of light. Mice used to evaluate retinal morphology were not exposed to photobleaching prior to analysis.
Rhodopsin purification was done under dim red light as previously described (Zhu, L., et al. J Biot Chem, 279, 53828-53839 (2004)). Purified anti-rhodopsin C terminus antibody 1D4 (MacKenzie, D., Arendt, A., Hargrave, P., McDowell, J. H. & Molday, R. S. Biochemistry, 23, 6544-6549 (1984)) was immobilized on CNBr-activated Sepharose 4B and a 4.6×12-mm column was packed with 2 mg of 1 D4 antibody/ml of Sepharose beads. Mouse whole eyes were homogenized in 137 mM NaCl, 5.4 mM Na2HPO4, 2.7 mM KCl and 1.8 mM KH2PO4 (pH 7.5) with a glass-to-glass homogenizer. Soluble proteins in the supernatant were removed by centrifugation at 14,000×g for 5 min and the pellet was solubilized in buffer containing 1% dodecyl-β-maltoside in 10 mM Bis-Tris propane (pH 7.5) containing 500 mM NaCl. The supernatant was cleared by centrifugation at 125,000×g for 20 min and loaded onto an antibody 1 D4-packed immunoaffinity column which was then thoroughly washed at a flow rate of 0.5 ml/min with 10 mM Bis-Tris propane (pH 7.5) containing 500 mM NaCl and 0.1% dodecyl-β-maltoside. […] Purified rhodopsin concentration was determined at 500 nm and total amount of opsin and rhodopsin at 280 nm with a Hewlett-Packard 8452A UV-visible spectrophotometer (Palczewski, K., Carruth, M. E., Adamus, G., McDowell, J. H. & Hargrave, P. A. Vision Research, 30, 1129-1137 (1990)).

T1 sequence (P15409 whole entry): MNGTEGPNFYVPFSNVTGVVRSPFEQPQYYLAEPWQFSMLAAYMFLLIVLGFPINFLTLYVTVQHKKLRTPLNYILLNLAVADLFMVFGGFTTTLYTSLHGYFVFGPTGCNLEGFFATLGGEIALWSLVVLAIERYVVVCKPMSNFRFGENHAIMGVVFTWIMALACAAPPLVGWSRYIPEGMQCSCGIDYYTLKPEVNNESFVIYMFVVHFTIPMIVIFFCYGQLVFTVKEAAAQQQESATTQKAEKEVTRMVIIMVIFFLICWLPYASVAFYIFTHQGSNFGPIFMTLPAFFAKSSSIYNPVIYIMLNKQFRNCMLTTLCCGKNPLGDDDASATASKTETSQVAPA

`CC(=O)OC/C=C(C)/C=C/C=C(C)\C=C\C1=C(C)CCCC1(C)C` [9-cis-R-Ac, 9-cis-retinyl acetate] was tested, and the “amounts of purified protein recovered” value (10-month-old treated mice, N1 versus C1) was “only slightly attenuated”, the “amounts of purified protein recovered” value (14 months of age, N2 and N3 vs C2) was “significantly lower” and the “regeneration ratios (rhodopsin/opsin) and total amounts of purified rhodopsin” value (long-term treatment, 10 and 14 months of age, control vs treated) was “no significant differences”.
